“Also recorded” adds a separate entry of the source.
Experiments:
human NSCs = assay: Proliferation of human NSCs in culture; assay type: cell-based
[1] = Absorption and half-life in rodents (HPLC analysis); assay type: in vivo, rat
From the text: (§1) U.S. Pat. Nos. 4,959,368; 5,976,523. One derivative of interest is heterocyclic pyrimidine molecule referred to herein as ‘NBI-18’ (2-piperadino-6-methyl-5-oxo-5,6-dihydro-(7H) pyrrolo-[3,4-d]pyrimidine maleate; Mwt. 349.54). […] U.S. Patent Pub 20030139410. The mechanism of action of NBI-18 is not known, although some evidence implies the activation of the MAPK (mitogen activated protein kinase) pathway, a cascade that is also activated by peptide growth factors. […] NBI-18 has been tested in isolated animal models—axon growth in mice and muscle regeneration in rats—with no evidence of mechanistic details relating to function. Mechanism of action studies to find the drug target, are planned as part of our ongoing research. Upon learning about the availability of NBI-18 family of molecules, it was hypothesized that the compounds may be involved in the proliferation process of Stem Cells and the inventors decided to examine the possible implication for genesis of Keratinocyte Stem Cells (KSCs) or possibly the human bulge cells which provide the niche for KSCs, in animal models.

[2] = Extraction of NBI-18 from epidermis of treated mice; assay type: in vivo; conditions: 24 hours post-injection
From the text: as §1

[3] = test system: cells in the brain of rodents; assay: NBI-18 injections: cell proliferation and neurogenesis in rodent brain; assay type: in vivo
[4] = test system: BrdU positive cells of the epidermis; assay: Topical application study: BrdU immunohistochemistry of epidermis; assay type: in vivo, C57 BL/6 mice
Procedure: (§2) Based on the inventors' realizations, the decision was made to test NBI-18 in a topical application study to induce the genesis or re-growth of hair. Varying doses of NBI-18 [0.75 mg/ml, 1.5 mg/ml, 3.0 mg/ml, and control (50% ETOH)] was delivered in 5 ul drops to shaved locations on the back of C57 BL/6 mice. The varying doses were given 5 consecutive days and on day 4 and 5 BrdU (100 mg/kg, ip) was injected. […] NBI-18 has proven to produce a desired affect in rodent models that show a predominant re-growth of hair using the topical application of the small molecular pyrimidine compound known as NBI-18. We are hypothesizing that NBI-18 treatment will lead to greater cytogenesis and eventually lead to a commercial product that will eradicate hair loss. These studies will be further described in the Examples provided below.
In this study, the inventors determined a dose range where keratinogenesis occurs in healthy mice to help us learn about the fate of newly formed cells within the epidermis. […] In order for us to eliminate unnecessary anesthesia, our vehicle of delivery was 50% Ethanol (ETOH). NBI-18 was suspended in 50% ETOH using the concentrations of 0.75 mg/ml, 1.5 mg/ml, 3.0 mg/ml, and control (50% ETOH) respectively.
A. Two C57 BL/6 mice were selected for the topical application study of NBI-18. The mice were prepped by shaving four specific locations lateral/dorsal in a circular pattern. NBI-18 was delivered to the specified areas (right, counterclockwise from lowest to highest dose, then control) in concentrations of 1.5 mg/ml, 3.0 mg/ml, 6.0 mg/ml and control (50% ETOH) respectively. The solutions were applied to the center of these locations in a 5 ul dose for 5 consecutive days and on days 4 and 5 BrdU (100 mg/K, ip) was injected. On day 7 the mice were euthanized using a high dose pentobarbital (70 mg/kg, ip) and the treated epidermis was dissected and placed into 4% paraformaldehyde fixative for 48 hour
Immunohistochemistry of epidermis. Epidermal sections were mounted into square embedding molds with freezing medium (O.C.T. compound, Tissue Tek), sliced in 20 uM sections then mounted onto adhesive coated slides (Instrumedics, Inc) via tape transfer method. Slides were washed with PBS then placed in 2NHCL for 30 minutes to […]. Slides were then washed again with PBS, then blocked using 3% Donkey serum in PBST for 1 hour. Primary anti-body suspended in blocking solution used was anti-BrdU (sigma) at 1:1000 overnight in 4C. Slide were washed 3× then placed in secondary anti-body suspended in blocking solution, FITC (Jackson ImmunoResearch) at 1:500 for 2 hours at room temperature then washed with PBS. Slides were mounted using Vectashield with Dapi. […]

[5] = Toxicity study (i.p., 7 days; rotarod, open field, postural reflex, forelimb placing); assay type: in vivo, C57 BL/6 mice; conditions: 100, 300, 1000 mg/kg/day i.p. for 7 days
Procedure: A total of 16 male C57 BL/6 mice (12 weeks old) weighing 25-30 g were used to investigate the toxicity of NBI-18. The mice were maintained on a 12-h light/dark cycle, and had free access to food and water through the study period. These animals were housed four per cage. In this study, animals were divided into four groups (four/group). Acute toxicity has been tested up to 1000 mg/kg. NBI-18 (0, 100, 300,1000 mg/kg/day, i.p.) was injected for 7 days and for the control group, the same volume of vehicle saline was injected. Bromodeoxyuridine (BrdU)(Sigma Chemical Co., St Louis, Mo.), was injected (100 mg/kg/day, i.p.) for the last three days (days 5-7). For behavioral testing, rotarod and open field tests were used to examine balance and coordination of mice before, during and after NBI-18 injection. Also, postural reflex and forelimb placing tests were performed to evaluate the neurological functions for the animals. All the animals were anesthetized with pentobarbital (i.p.) 48 h after the last BrdU injection and immediately per fused with 4% paraformaldehyde fixative. The brains were immediately dissected, post fixed for 24 h and processed for immunohistochemistry.

[6] = Ames test by a third party; conditions: third party company
From the text: as §1

rodent cortical neurons = conditions: cited from earlier work
hair re-growth = assay: Topical application study: hair re-growth on shaved skin; assay type: in vivo, C57 BL/6 mice; conditions: topical 0.75, 1.5, 3.0 mg/ml, 5 consecutive days
Procedure: as §2
B. Four C57 BL/6 mice were selected for the topical application study of NBI-18. The mice were prepped by shaving four specific locations lateral/dorsal in a circular pattern. NBI-18 was delivered to the specified areas (right, counterclockwise from lowest to highest dose, then control) in concentrations of 0.75 mg/ml, 1.5 mg/ml, and 3.0 mg/ml, and control (50% ETOH) respectively. The solutions were applied to the center of these locations in a 5 ul dose for 5 consecutive days and on days 4 and 5 BrdU (100 mg/K, ip) was injected. […]

[7] = daily injections for five days, rodents

## CN1Cc2nc(N3CCCCC3)ncc2C1=O.O=C(O)/C=C\C(=O)O [NBI-18, 2-piperadino-6-methyl-5-oxo-5,6-dihydro-(7H) pyrrolo-[3,4-d]pyrimidine maleate]
Human NSCs
  proliferation of human NSCs: stimulate the proliferation
[1]; after intraperitoneal as well as oral administration, rodent studies
  absorption: absorbed well
[1]; general statement
  oral bioavailability: orally bioavailability
[1]; rat circulation, HPLC analysis
  t1/2: > 4 h
[2]
  presence in epidermis: can be extracted
[3]; animal studies
  dose dependence of the increase in proliferation: dose dependent
[3]; daily injections for five days, at four weeks, young and aged rodents
  neurogenesis: stable neurogenesis
[3]; [7]
  pathological effects: no discernible pathological effects
  symptoms of toxicity: no symptoms of toxicity
[3]; injections 5 mg/kg, rodents
  proliferation of cells in the brain: increased proliferation
[4]; Example 3A, topical 1.5, 3.0, 6.0 mg/ml, 5 ul, 5 days, FIG. 1
  newly developed (BrdU) cells versus control: mass increases of newly developed cells
[4]; Example 3A, topical 1.5, 3.0, 6.0 mg/ml, FIG. 1
  migration pattern of new cells: alignment towards migration patterns
[4]; topical 0.75, 1.5, 3.0 mg/ml in 50% ETOH
  dose dependence of the elevation in BrdU positive stained cells: did not demonstrate a dose dependent increase
[4]; topical 0.75, 1.5, 3.0 mg/ml in 50% ETOH, 5 ul, 5 consecutive days
  BrdU positive (proliferating) cells in comparison to control: abundant increase in proliferating cells; also recorded: vast increase; also recorded: dramatic elevation; also recorded: some varying levels of increase; also recorded: increases the number of BrdU positive cells
[5]
  behavioral or neurological changes: no immediate behavioral or neurological changes
  symptoms of toxicity: no symptoms of toxicity
[6]
  mutagenicity: not mutagenic; also recorded: no mutagenesis or toxicity
Rodent cortical neurons; TUNEL assays
  rate of apoptosis: reducing the rate of apoptosis
Rodent cortical neurons; bFGF, nerve growth factor, EGF, insulin-like growth factor
  activity in neuron culture: active primarily in the presence of various growth factors
Rodent cortical neurons
  survival of rodent cortical neurons: promoted the survival
Hair re-growth
  time to re-growth of hair near to its original length: ≤ 7 days
Hair re-growth; 5 ul, shaved skin
  hair re-growth in treated areas compared to control areas: visibly complete hair growth; also recorded: visible re-growth of hair; also recorded: actual hair re-growth
